Several values for one entry are separate records, joined by “and”; a condition that tells them apart may be missing. Equal values may be shown once.
Tested on: 633275-114-R-J1-PDC complex spheroids, viability
Assay: Anticancer human tumor 633275-114-R-J1-PDC patient-derived endometrial adenocarcinoma cell line growth inhibition [GQUAD]
Details: for viability, T/C: stronger effect = lower value
From the text: DNA G-quadruplex Stabilizer Agents in Combinations in Complex Spheroids
A high-throughput screen of multi-cell type tumor spheroids was designed to identify active combinations of DNA G-quadruplex stabilizer agents and targeted small molecules. Complex spheroids include a stromal component modeled by human endothelial cells (HUVEC) and fibroblasts modeled by human mesenchymal stem cells (MSCs). The concentration ranges selected for each drug and investigational agent were based upon clinically achievable concentrations if the clinical Cmax of the agent was known.
Compounds. The drugs and investigational agents: pidnarulex (CX-5461; NSC782164), APTO-253 (NSC789042), BRACO-19 (NSC847499), peposertib (NSC802822), ceralasertib (NSC780249), elimusertib (NSC800525), camonsertib (NSC841442), AZD-1390 (NSC803789), olaparib (NSC753686), talazoparib (NSC767125), ART-558 (NSC835418), sotorasib (NSC818433), MRTX-1133 (NSC836407), SN-38 (NSC673596), topotecan (NSC609699), etoposide (NSC141540), doxorubicin (NSC123127), gemcitabine (NSC613327), 5-fluorouracil (NSC19893), paclitaxel (NSC125973), vemurafenib (NSC761431), panobinostat (NSC761190), R-306465 (JNJ-16241199; NSC773264), adavosertib (NSC754352), TP-3654 (NSC805149), carboplatin (NSC241240), KSQ-4279 (NSC840948), and staurosporine (NSC755774) were obtained from the National Cancer Institute (NCI) Developmental Therapeutics Program Chemical Repository (34). The FDA-approved anticancer drug set is available from the NCI Developmental Therapeutics Program. […] The stock solutions were prepared in dimethyl sulfoxide (DMSO, Sigma-Aldrich, St. Louis, MO, cat. D2650) at 800-fold the tested concentration and stored at -70 degrees C prior to their use. All drugs and investigational agents were tested over a range starting from a high concentration at or near the clinical Cmax and decreasing in half-log increments. If the clinical Cmax for an agent had not been determined, the highest concentration tested was 10 microM.
2.3 Cell Culture. All cells were maintained in an incubator at 37 degrees C and 5% CO2 with 95% humidity. The PDC lines were cultured according to standard operating procedures established by the NCI PDMR. All PDCs were thawed and cultured in Matrigel-coated flasks prepared with a working solution of 1X Ham's F-12 nutrient mix, without supplementation (Invitrogen, cat. 11765054), 100 U/mL penicillin-streptomycin (Invitrogen, cat. 15140122), and 2.5% Matrigel (Corning Inc., cat. 354248) for the first three passages. The 857933-349-R-J2-PDC line was cultured in 6C/Colon 1B media, which includes advanced DMEM/F-12 (Thermo Fisher Scientific, cat. 12634028), 10 mM HEPES (Thermo Fisher Scientific, cat. 15630080), 1X GlutaMAX supplement (Thermo Fisher Scientific, cat. 35050061), 0.1 mg/mL primocin (InvivoGen, cat. ant-pm-2), 10% defined fetal bovine serum, heat inactivated (HyClone Laboratories Inc., cat. SH30070.03HI), 50% L-WRN conditioned media (ATCC, cat. CRL-3276), 1.25 mM N-Acetyl-L-cysteine (Sigma-Aldrich, cat. A9165), 10 mM nicotinamide (Sigma-Aldrich, cat. N0636), 1X B-27 supplement (Thermo Fisher Scientific, cat. 17504044), 1X N-2 supplement (Thermo Fisher Scientific, cat. 17502048), 10 microM Y-27632 dihydrochloride (Tocris Bioscience, cat. 1254), and 50 ng/mL human EGF recombinant protein (Thermo Fisher Scientific, cat. PHG0311). The 485176-168-R4-J1-PDC line was cultured in Panc media, which includes all 6C/Colon 1B media components plus 100 ng/mL human FGF-10 (Thermo Fisher Scientific, cat. 100-26), 500 nM SB-431542 (Selleckchem, cat. S1067), and gastrin (Tocris, cat. 3006).
[…]
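Note: spheroids exposed to the agents for seven days.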
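Throughout, for viability, T/C: percent of DMSO vehicle control viability which is 100%.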

SMILES	viability, T/C (compound 0.0316 µM)	viability, T/C (compound 0.1 µM)	viability, T/C (compound 0.316 µM)	viability, T/C (compound 1 µM)	viability, T/C (compound 3.16 µM)	viability, T/C (compound 10 µM)	IC50 (curve of compound)	viability, T/C (compound 0.000999 µM)	viability, T/C (compound 0.00316 µM)	viability, T/C (compound 0.00999 µM)	viability, T/C (compound 0.0999 µM)	IC50 (compound alone, run of 03/26/2024)
C#Cc1c(F)ccc2cc(O)cc(-c3ncc4c(N5CC6CCC(C5)N6)nc(OCC56CCCN5CC(F)C6)nc4c3F)c12 (stereo unspecified)	113% and 109% and 110%	97.5% and 81% and 88.5%	89.9% and 97.2% and 102%	91.7% and 88.4% and 80.4%	89.1% and 69.1% and 78.6%	72.7% and 64.9% and 67.2%	> 10000 nM	–	–	–	–	–
C=CC(=O)N1CCN(c2nc(=O)n(-c3c(C)ccnc3C(C)C)c3nc(-c4c(O)cccc4F)c(F)cc23)C(C)C1 (stereo unspecified)	98.6% and 102% and 105%	101% and 93.9% and 95.3%	109% and 115% and 99.2%	105% and 90.3% and 92%	111% and 93.5% and 105%	85% and 77% and 90.2%	> 10000 nM	–	–	–	–	–
C=CCn1c(=O)c2cnc(Nc3ccc(N4CCN(C)CC4)cc3)nc2n1-c1cccc(C(C)(C)O)n1	103% (2×) and 101%	85.9% and 89.3% and 91.3%	73.9% and 70.5% and 70.1%	35.7% and 39.9% and 32.9%	20.4% and 22.2% and 19.9%	14.6% and 16.2% and 13.9%	649 nM and 682 nM and 590 nM	–	–	–	–	–
CC(=O)O[C@H]1C(=O)[C@@]2(C)[C@H]([C@H](OC(=O)c3ccccc3)[C@]3(O)C[C@H](OC(=O)[C@H](O)[C@@H](NC(=O)c4ccccc4)c4ccccc4)C(C)=C1C3(C)C)[C@]1(OC(C)=O)CO[C@@H]1C[C@@H]2O	47.5% and 49.6% and 46.9%	22.7% and 22.6% and 27.5%	18.4% and 21% and 21.7%	20.4% and 20% and 23.4%	18.8% and 21.8% and 21.4%	19.4% and 21.5% and 20.4%	< 31.6 nM	–	–	–	–	–
CC(C)(O)C1CCC(Nc2ccc3ncc(-c4cccc(C(F)(F)F)c4)n3n2)CC1 (stereo unspecified)	103% and 106% (2×)	94.8% and 101% and 89.9%	95.2% and 87.9% and 105%	68.7% and 71.4% and 61.6%	29.8% and 33.2% and 29.4%	35% and 33.7% and 39.8%	1810 nM and 2010 nM and 1640 nM	–	–	–	–	–
CC(C)n1c(=O)n(C)c2cnc3cc(F)c(-c4ccc(OCCCN5CCCCC5)nc4)cc3c21	111% and 107% and 105%	102% and 105% and 94.4%	112% and 103% and 93.6%	95.5% and 97.2% and 101%	96.8% and 95.2% and 92.5%	69.9% and 73.6% and 72.5%	> 10000 nM	–	–	–	–	–
CC1COCCN1c1cc(-c2ccnn2C)c2ccnc(-c3ccn[nH]3)c2n1 (stereo unspecified)	81% and 83.4% and 86.5%	59.5% and 53.2% and 55.1%	38.6% and 39.2% and 35.8%	26.8% and 24.3% and 27.8%	19.3% (2×) and 20.4%	18% and 15.8% and 15.7%	170 nM and 137 nM and 140 nM	–	–	–	–	–
CC1COCCN1c1cc(C2(O)CC3CCC(C2)O3)c2cnn(-c3ccn[nH]3)c2n1 (stereo unspecified)	70% and 78% and 77.7%	54.3% and 51.8% and 50.7%	29% and 32.2% and 29.2%	19.2% and 21% and 21.1%	13.5% (2×) and 15.8%	8.78% and 10.1% and 9.68%	117 nM and 109 nM and 99.8 nM	–	–	–	–	–
CC1COCCN1c1cc(C2(S(C)(=N)=O)CC2)nc(-c2ccnc3[nH]ccc23)n1 (stereo unspecified)	94.8% and 102% and 108%	97.4% and 89.5% and 94.1%	98.2% and 98.4% and 91.8%	79.9% and 72.7% and 79.3%	49.4% and 51.8% and 86.4%	31% and 33.7% and 32.8%	3020 nM and 3220 nM and 6630 nM	–	–	–	–	–
CCCS(=O)(=O)Nc1ccc(F)c(C(=O)c2c[nH]c3ncc(-c4ccc(Cl)cc4)cc23)c1F	101% and 96% and 115%	91.7% and 116% and 104%	101% and 107% and 113%	105% and 106% and 99.1%	101% and 87.6% and 96.9%	42.9% and 43.6% and 32.6%	8670 nM and 8460 nM and 7300 nM	–	–	–	–	–
CC[C@@]1(O)C(=O)OCc2c1cc1n(c2=O)Cc2cc3c(CN(C)C)c(O)ccc3nc2-1	68.2% and 70.6% and 66.2%	–	37.1% and 38.9% and 35.8%	–	–	–	71.7 nM and 79.8 nM and 73.9 nM	95.5% and 106% and 99.4%	97.2% and 89% and 87.9%	86% and 86.5% and 92%	41.4% and 40.2% and 45%	–
CCc1c2c(nc3ccc(O)cc13)-c1cc3c(c(=O)n1C2)COC(=O)[C@]3(O)CC	32.8% and 34.7% and 35.9%	–	23.7% (2×) and 24.4%	–	–	–	2.99 nM and 3.5 nM and 2.94 nM	72.9% and 83.1% and 65.5%	47.6% and 49.1% and 47%	36.6% and 36.4% and 38.1%	30% and 24.7% and 28.8%	–
CN(C)c1ccc(Nc2c3ccc(NC(=O)CCN4CCCC4)cc3nc3cc(NC(=O)CCN4CCCC4)ccc23)cc1	102% [middle of 12 runs]	101% [middle of 12 runs]	103% [middle of 12 runs]	94.3% [middle of 12 runs]	81.8% [middle of 12 runs]	36.6% [middle of 12 runs]	–	–	–	–	–	7.24 µM [middle of 12 runs]

Source: PubChem BioAssay AID2060505 (Molecular Pharmacology Branch, DTP, NCI, 2025)
